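Each compound was tested at five concentrations against cells in 96-well plates for 48 hours. The concentration for 50% growth inhibition is given as GI50.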 Active and inactive are the calls of the source. Rule as the data show it: active = GI50 up to about 1.1 µM and inactive = higher.
Columns and labels:
Assay in all cases: growth of human tumour cells (NCI), 48 h
RPMI-8226 = system: RPMI-8226
UACC-257 = system: UACC-257
SR = system: SR
NCI/ADR-RES = system: NCI/ADR-RES
SW-620 = system: SW-620
ACHN = system: ACHN
NCI-H522 = system: NCI-H522
RXF 393 = system: RXF 393
SNB-75 = system: SNB-75
UO-31 = system: UO-31
NCI-H23 = system: NCI-H23
IGROV-1 = system: IGROV-1
786-0 = system: 786-0
HOP-92 = system: HOP-92
SK-MEL-28 = system: SK-MEL-28
KM12 = system: KM12
SF-539 = system: SF-539
CAKI-1 = system: CAKI-1
HT-29 = system: HT-29
Malme-3M = system: Malme-3M

Row | SMILES | GI50 (RPMI-8226) | GI50 (UACC-257) | GI50 (SR) | GI50 (NCI/ADR-RES) | GI50 (SW-620) | GI50 (ACHN) | GI50 (NCI-H522) | GI50 (RXF 393) | GI50 (SNB-75) | GI50 (UO-31) | GI50 (NCI-H23) | GI50 (IGROV-1) | GI50 (786-0) | GI50 (HOP-92) | GI50 (SK-MEL-28) | GI50 (KM12) | GI50 (SF-539) | GI50 (CAKI-1) | GI50 (HT-29) | GI50 (Malme-3M)
1 | N#C/N=C1/c2ccccc2/C(=N/C#N)c2cc(CO)ccc21 | 2.95 µM (inactive) | 26.6 µM (inactive) | 17 µM (inactive) | 28.5 µM (inactive) | 25.6 µM (inactive) | 24.7 µM (inactive) | 39 µM (inactive) | 27.6 µM (inactive) | 24.2 µM (inactive) | 30.2 µM (inactive) | 27.1 µM (inactive) | 29.4 µM (inactive) | 36.8 µM (inactive) | 24.8 µM (inactive) | 43 µM (inactive) | 31.8 µM (inactive) | 51.2 µM (inactive) | 25.3 µM (inactive) | 26.7 µM (inactive) | 
2 | CN1C(=O)c2ccccc2OC12C=Cc1ccc(O)cc1O2 (centres undefined) | 30.3 µM (inactive) | 15.6 µM (inactive) | < 0.01 µM (active) | 13.5 µM (inactive) | 26.6 µM (inactive) | 23 µM (inactive) | 20.4 µM (inactive) |  | 22.8 µM (inactive) | 18.7 µM (inactive) | 28.2 µM (inactive) | 28.2 µM (inactive) | 31.6 µM (inactive) | 27.2 µM (inactive) | 21.3 µM (inactive) | 25.2 µM (inactive) |  | 16.1 µM (inactive) | 22.3 µM (inactive) | 
3 | CCCOC(=O)C1C2CCC(O2)C1C(=O)O (centres undefined) | > 100 µM (inactive) | > 100 µM (inactive) | > 100 µM (inactive) | > 100 µM (inactive) | > 100 µM (inactive) | > 100 µM (inactive) | > 100 µM (inactive) | > 100 µM (inactive) | 36.3 µM (inactive) | > 100 µM (inactive) | > 100 µM (inactive) | > 100 µM (inactive) | > 100 µM (inactive) |  | > 100 µM (inactive) | > 100 µM (inactive) |  | > 100 µM (inactive) | > 100 µM (inactive) | > 100 µM (inactive)
4 | COc1cc(/C=C2/SC(c3ccccc3)N(c3ccccc3)C2=O)cc(OC)c1OC (centres undefined) | 9.66 µM (inactive) | 61.8 µM (inactive) | 14 µM (inactive) | 48.2 µM (inactive) | > 100 µM (inactive) | 84.3 µM (inactive) | 21.7 µM (inactive) | 23.7 µM (inactive) |  | 29.5 µM (inactive) | 42.5 µM (inactive) |  | > 100 µM (inactive) | > 100 µM (inactive) | > 100 µM (inactive) | 30.3 µM (inactive) | > 100 µM (inactive) | > 100 µM (inactive) |  | 80.2 µM (inactive)
5 | O=c1[nH]c(=O)n(C2OC(CO)C(O)C2O)cc1OCCc1ccccc1 (centres undefined) |  | > 100 µM (inactive) | > 100 µM (inactive) | > 100 µM (inactive) | > 100 µM (inactive) | > 100 µM (inactive) | > 100 µM (inactive) | > 100 µM (inactive) |  |  | > 100 µM (inactive) | > 100 µM (inactive) | > 100 µM (inactive) | > 100 µM (inactive) | > 100 µM (inactive) | > 100 µM (inactive) | > 100 µM (inactive) | > 100 µM (inactive) | > 100 µM (inactive) | > 100 µM (inactive)
6 | Cc1cn(CC2=NCCN2)c(=O)[nH]c1=O | > 100 µM (inactive) | > 100 µM (inactive) | > 100 µM (inactive) | > 100 µM (inactive) | > 100 µM (inactive) | > 100 µM (inactive) | > 100 µM (inactive) | > 100 µM (inactive) | > 100 µM (inactive) | > 100 µM (inactive) | > 100 µM (inactive) | > 100 µM (inactive) | > 100 µM (inactive) | > 100 µM (inactive) | > 100 µM (inactive) | > 100 µM (inactive) |  | > 100 µM (inactive) | > 100 µM (inactive) | > 100 µM (inactive)
7 | CSc1c(C(N)=S)c(N)nn1-c1ccccc1 | > 100 µM (inactive) | > 100 µM (inactive) | > 100 µM (inactive) | > 100 µM (inactive) | > 100 µM (inactive) |  | > 100 µM (inactive) | > 100 µM (inactive) | > 100 µM (inactive) | > 100 µM (inactive) | > 100 µM (inactive) | > 100 µM (inactive) | > 100 µM (inactive) | > 100 µM (inactive) | > 100 µM (inactive) | > 100 µM (inactive) | > 100 µM (inactive) | > 100 µM (inactive) | > 100 µM (inactive) | > 100 µM (inactive)
8 | COc1ccc2c(c1)C(=O)CCc1cc(OC)c(OC)c(OC)c1-2 | 0.0631 µM (active) | < 0.01 µM (active) | 0.0354 µM (active) | 0.0214 µM (active) | 0.0716 µM (active) | 0.0863 µM (active) | < 0.01 µM (active) |  |  | 0.0631 µM (active) | 0.024 µM (active) | 0.0553 µM (active) | 0.0542 µM (active) | 0.135 µM (active) | 0.0818 µM (active) | 0.0298 µM (active) | < 0.01 µM (active) | 0.127 µM (active) | 0.0374 µM (active) | 0.0304 µM (active)

Source: ChEMBL document CHEMBL1201862, “PubChem BioAssay data set” (2004)
